# In US9957271B2, “Substituted bicyclic aza-heterocycles and analogues as sirtuin modulators” (GlaxoSmithKline, LLC, priority 2012, dated 2018):
# Experiments:
# [1] = molecular target: T1, SIRT1 (Homo sapiens, UniProt Q96EB6); assay: TAMRA based mass spectrometry assay of SIRT1 activity; format: biochemical; conditions: for Emax: read-out: TAMRA % Fold Act
# T1 sequence (Q96EB6 1-747): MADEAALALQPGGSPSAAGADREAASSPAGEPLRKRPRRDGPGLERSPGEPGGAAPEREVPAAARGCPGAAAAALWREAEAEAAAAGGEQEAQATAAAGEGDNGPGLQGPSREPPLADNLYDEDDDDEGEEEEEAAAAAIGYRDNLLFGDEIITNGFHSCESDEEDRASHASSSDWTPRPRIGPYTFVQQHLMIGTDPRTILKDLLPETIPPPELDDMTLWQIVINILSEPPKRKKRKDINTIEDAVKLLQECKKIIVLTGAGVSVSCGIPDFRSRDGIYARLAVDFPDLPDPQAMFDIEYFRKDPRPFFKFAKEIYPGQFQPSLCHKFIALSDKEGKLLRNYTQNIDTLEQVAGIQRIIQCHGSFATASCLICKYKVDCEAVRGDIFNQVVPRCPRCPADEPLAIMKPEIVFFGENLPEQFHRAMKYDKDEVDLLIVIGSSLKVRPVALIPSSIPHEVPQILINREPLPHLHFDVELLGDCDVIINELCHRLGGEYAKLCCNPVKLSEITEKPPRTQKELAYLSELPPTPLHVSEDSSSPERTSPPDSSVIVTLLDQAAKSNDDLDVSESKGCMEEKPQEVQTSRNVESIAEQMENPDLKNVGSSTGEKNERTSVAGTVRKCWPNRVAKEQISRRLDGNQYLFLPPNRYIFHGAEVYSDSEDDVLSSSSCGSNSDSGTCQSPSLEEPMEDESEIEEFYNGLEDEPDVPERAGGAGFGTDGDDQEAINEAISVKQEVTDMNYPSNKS
# Procedure, shortened: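 Deacetylation of a biotinylated, TAMRA-tagged p53-based peptide (0.5 μM) by 10 nM His-tagged SIRT1 with 120 μM βNAD+, 25 °C for 25 min, pH 8 Tris-acetate buffer, across a compound concentration range. Quenched by formic acid and read by mass spec as product peptide or OAADPR; activity relative to DMSO reactions, nicotinamide defining maximal inhibition.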
# [2] = molecular target: T1, SIRT1; assay: Trp mass spectrometry assay of SIRT1 activity; format: biochemical; conditions: for Emax: read-out: Trp % Fold Act
# Procedure, shortened: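 Activation readout: EC1.5 (concentration raising activity 50% over control) and percent maximum activation, from mass-spec quantitation of OAADPR or deacetylated Trp peptide. Reaction: 0.5 μM acetylated Trp peptide, 120 μM βNAD+, 10 nM bacterially expressed N-His SIRT1, pH 7.5 HEPES buffer with […], 25 min at 25° C.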
# [3] = concentration of test compound giving 150% activation of SIRT1, TAMRA peptide substrate
# [4] = percent maximum fold activation of SIRT1, TAMRA peptide substrate
# [5] = concentration of test compound giving 150% activation of SIRT1, Trp peptide substrate
# [6] = percent maximum fold activation of SIRT1, Trp peptide substrate
# [7] = TAMRA assay, concentration giving 150% activation of SIRT1
# [8] = TAMRA assay, percent maximum fold activation
# [9] = Trp assay, concentration giving 150% activation of SIRT1
# [10] = Trp assay, percent maximum fold activation
# [11] = TAMRA peptide substrate, concentration giving 150% activation of SIRT1
# [12] = TAMRA peptide substrate, percent maximum fold activation
# [13] = Trp peptide substrate, concentration giving 150% activation of SIRT1
# [14] = Trp peptide substrate, percent maximum fold activation
Structure (SMILES),"TAMRA EC1.5 (μM) [1, 7]","Emax [1, 8] [%]","Trp EC1.5 (μM) [2, 9]","Emax [2, 10] [%]",further results
O=C(Nc1cccc(CN2CCOCC2)n1)c1cnc2ccc(-c3c(F)cccc3F)nn12 [Compound 172],,,,,"TAMRA EC1.5 (μM) [1, 3]: B (EC1.5 1-25 μM); Emax [1, 4]: ≥ 350%; Trp EC1.5 (μM) [2, 5]: C (EC1.5>25 μM); Emax [2, 6]: < 350%"
O=C(Nc1cnccn1)c1cnn2ccc(-c3ccccc3C(F)(F)F)nc12 [Compound 267],A (EC1.5<1 μM),≥ 350,B (EC1.5 1-25 μM),< 350,
CC1(COc2ccnc(NC(=O)c3cnc4ccc(-c5ccccc5C(F)(F)F)nn34)n2)COC1 [Compound 340],A (EC1.5<1 μM),≥ 350,A (EC1.5<1 μM),≥ 350,
Cc1cc(C)c(NC(=O)c2c(C)nn3ccc(-c4ccccc4Br)nc23)cn1 [Compound 826],B (EC1.5 1-25 μM),≥ 350,A (EC1.5<1 μM),< 350,
N#Cc1ccccc1-c1ccc2ncc(NC(=O)c3cnccn3)n2n1 [Compound 329],B (EC1.5 1-25 μM),< 350,C (EC1.5>25 μM),< 350,
Cc1ccc(NC(=O)c2c(C)nn3ccc(-c4ccccc4C(F)(F)F)nc23)c(C)n1 [Compound 698],A (EC1.5<1 μM),≥ 350,A (EC1.5<1 μM),≥ 350,
O=C(Nc1cccc(CN2CCOCC2)n1)c1cnn2ccc(-c3ccccc3C(F)(F)F)nc12 [Compound 269],A (EC1.5<1 μM),≥ 350,B (EC1.5 1-25 μM),≥ 350,
Cc1nc2ccc(-c3ccccc3C(F)(F)F)nn2c1C(=O)Nc1ccnn1C(C)C [Compound 680],B (EC1.5 1-25 μM),< 350,B (EC1.5 1-25 μM),≥ 350,
O=C(Nc1cnc2ccc(-c3ccccc3C(F)(F)F)nn12)c1cccc(OCC(O)CO)n1 (stereo not drawn) [Compound 83],,,,,"TAMRA EC1.5 (μM) [1, 3]: A (EC1.5<1 μM); Emax [1, 4]: ≥ 350%; Trp EC1.5 (μM) [2, 5]: A (EC1.5<1 μM); Emax [2, 6]: ≥ 350%"
Cc1ccnc(NC(=O)c2c(C)nn3ccc(-c4ccccc4C(F)(F)F)nc23)c1 [Compound 683],A (EC1.5<1 μM),≥ 350,A (EC1.5<1 μM),≥ 350,
Cc1cccc(-c2ccc3nc(C)c(C(=O)Nc4ccc(C)nn4)n3n2)c1 [Compound 692],A (EC1.5<1 μM),< 350,A (EC1.5<1 μM),< 350,
O=C(Nc1cnn2ccc(-c3ccccc3OC(F)(F)F)nc12)c1nc(C(F)(F)F)cs1 [Compound 770],B (EC1.5 1-25 μM),≥ 350,C (EC1.5>25 μM),< 350,
Cc1cnc(NC(=O)c2cnc3ccc(-c4ccccc4OC[C@H](O)CO)nn23)s1 [Compound 820],B (EC1.5 1-25 μM),≥ 350,B (EC1.5 1-25 μM),< 350,
O=C(Nc1cnc2ccc(-c3ccccc3C(F)(F)F)nn12)c1cncc(N2CCOCC2)n1 [Compound 120],,,,,"TAMRA EC1.5 (μM) [1, 3]: A (EC1.5<1 μM); Emax [1, 4]: ≥ 350%; Trp EC1.5 (μM) [2, 5]: B (EC1.5 1-25 μM); Emax [2, 6]: ≥ 350%"
Cc1ccncc1NC(=O)c1cnn2ccc(-c3ccccc3OC(F)(F)F)nc12 [Compound 610],B (EC1.5 1-25 μM),< 350,A (EC1.5<1 μM),≥ 350,
Cc1nc2c(C)cc(-c3ccccc3C(F)(F)F)nn2c1C(=O)Nc1ccncn1 [Compound 460],,,,,"TAMRA EC1.5 [1, 11]: A (EC1.5<1 μM); Emax [1, 12]: ≥ 350%; Trp EC1.5 [2, 13]: A (EC1.5<1 μM); Emax [2, 14]: ≥ 350%"
O=C(Nc1cnn2ccc(-c3ccccc3OC(F)(F)F)nc12)c1ncc(F)cc1F [Compound 755],A (EC1.5<1 μM),≥ 350,B (EC1.5 1-25 μM),< 350,

Structure (SMILES),"TAMRA EC1.5 (μM) [1, 7]","Emax [1, 8] [%]","Trp EC1.5 (μM) [2, 9]","Emax [2, 10] [%]",further results
Cc1nccc(NC(=O)c2c(C)nn3ccc(-c4ccccc4C(F)(F)F)nc23)c1C [Compound 639],A (EC1.5<1 μM),≥ 350,A (EC1.5<1 μM),≥ 350,
Cc1nc2c(C)cc(-c3ccccc3C(F)(F)F)nn2c1C(=O)Nc1cnccn1 [Compound 586],,,,,"TAMRA EC1.5 [1, 11]: A (EC1.5<1 μM); Emax [1, 12]: ≥ 350%; Trp EC1.5 [2, 13]: A (EC1.5<1 μM); Emax [2, 14]: ≥ 350%"
Cc1cnc(C(=O)Nc2c(C)nc3ccc(-c4ccccc4Cl)nn23)s1 [Compound 354],B (EC1.5 1-25 μM),< 350,C (EC1.5>25 μM),< 350,
Cc1ccc(NC(=O)c2cnn3ccc(-c4ccccc4OC(F)(F)F)nc23)nn1 [Compound 633],A (EC1.5<1 μM),≥ 350,B (EC1.5 1-25 μM),< 350,
Cc1cc(C)nc(C(=O)Nc2cnn3ccc(-c4ccccc4C(F)(F)F)nc23)c1 [Compound 524],,,,,"TAMRA EC1.5 [1, 11]: A (EC1.5<1 μM); Emax [1, 12]: ≥ 350%; Trp EC1.5 [2, 13]: C (EC1.5>25 μM); Emax [2, 14]: < 350%"
O=C(Nc1cccc(N2CCOCC2)n1)c1cnc2ccc(-c3ccccc3F)nn12 [Compound 133],,,,,"TAMRA EC1.5 (μM) [1, 3]: A (EC1.5<1 μM); Emax [1, 4]: ≥ 350%; Trp EC1.5 (μM) [2, 5]: A (EC1.5<1 μM); Emax [2, 6]: < 350%"
Cc1nc2ccc(-c3ccccc3Cl)nn2c1NC(=O)c1ccccn1 [Compound 346],B (EC1.5 1-25 μM),< 350,C (EC1.5>25 μM),< 350,
O=C(Nc1cccnn1)c1cnn2ccc(-c3ccccc3C(F)(F)F)nc12 [Compound 505],,,,,"TAMRA EC1.5 [1, 11]: A (EC1.5<1 μM); Emax [1, 12]: ≥ 350%; Trp EC1.5 [2, 13]: B (EC1.5 1-25 μM); Emax [2, 14]: < 350%"
O=C(Nc1cccc(CN2CCOCC2)n1)c1cnc2ccc(-c3ccc(F)cc3F)nn12 [Compound 41],,,,,"TAMRA EC1.5 (μM) [1, 3]: B (EC1.5 1-25 μM); Emax [1, 4]: < 350%; Trp EC1.5 (μM) [2, 5]: C (EC1.5>25 μM); Emax [2, 6]: < 350%"
Cc1cc2ncc(NC(=O)c3cccc(N4CCC4)n3)n2nc1-c1ccccc1C(F)(F)F [Compound 448],,,,,"TAMRA EC1.5 [1, 11]: A (EC1.5<1 μM); Emax [1, 12]: ≥ 350%; Trp EC1.5 [2, 13]: B (EC1.5 1-25 μM); Emax [2, 14]: ≥ 350%"
O=C(Nc1cnn2ccc(-c3ccccc3C(F)(F)F)nc12)c1ccncn1 [Compound 254],B (EC1.5 1-25 μM),≥ 350,C (EC1.5>25 μM),< 350,
Cc1c(-c2ccccc2C(F)(F)F)nn2c(NC(=O)c3cccc(N4CCCC4)n3)cnc2c1C [Compound 421],,,,,"TAMRA EC1.5 [1, 11]: A (EC1.5<1 μM); Emax [1, 12]: ≥ 350%; Trp EC1.5 [2, 13]: A (EC1.5<1 μM); Emax [2, 14]: ≥ 350%"
Cc1nc2c(C)cc(-c3ccccc3OC(F)(F)F)nn2c1C(=O)Nc1ccncn1 [Compound 478],,,,,"TAMRA EC1.5 [1, 11]: A (EC1.5<1 μM); Emax [1, 12]: ≥ 350%; Trp EC1.5 [2, 13]: A (EC1.5<1 μM); Emax [2, 14]: ≥ 350%"
Cc1cc(-c2ccccc2C(F)(F)F)nn2c(C(=O)Nc3ccnc(OC(C)C)n3)cnc12 [Compound 615],A (EC1.5<1 μM),≥ 350,A (EC1.5<1 μM),≥ 350,
O=C(Nc1ccnc(N2CCCC2)c1)c1cnc2ccc(-c3ccccc3C(F)(F)F)nn12 [Compound 25],,,,,"TAMRA EC1.5 (μM) [1, 3]: A (EC1.5<1 μM); Emax [1, 4]: ≥ 350%; Trp EC1.5 (μM) [2, 5]: A (EC1.5<1 μM); Emax [2, 6]: ≥ 350%"
Cc1nc2c(C)cc(-c3ccccc3C(F)(F)F)nn2c1C(=O)Nc1ccnc(C(C)(C)C)n1 [Compound 731],A (EC1.5<1 μM),≥ 350,A (EC1.5<1 μM),< 350,
